Data taken from patent US20080221088A1, “3,4-Substituted Thiazoles as Ampk Activators” (priority 2005, published 2008).

Assays:
[1] = system: AMPK; test: AMPK activation potential, cell based ELISA with p-AMPK specific antibody, Hep G2 cells; conditions: HepG-2 cells, 24 hours incubation, normalized to metformin at 2 mM as 100%
Experimental: (§1) AMPK activation potential percentages are obtained by normalizing the values obtained at the concentrations in the range of 2 nM-10 μM with that of metformin by considering the values obtained for metformin at 2 mM concentrations as 100%.
(§2) AMPK activation potential of the compounds of formula (I) was evaluated using a cell based ELISA approach. Skeletal muscle (L6 muscle) and hepatoma (Hep G2) liver cells were cultured for 48 hours prior to drug addition at various concentrations. Twenty four (24) hours later, the cells were fixed and the ELISA plate developed following standard protocol using p-AMPK specific antibody.
(§3) Various cell lines such as HepG2 and L6 were revived from glycerol stocks (ATCC). The cells were maintained in a T 75 culture flask-containing medium (DMEM+10% fetal calf serum). On reaching a confluence of 70 to 80%, the cells was seeded in a 96 well plate at a density of 10×10^3 cells per well in DMEM+10% FCS medium. The plates are then incubated at 37° C. with 5% CO2 for 48 hours. Various concentrations of drugs were prepared in DMSO and diluted to required concentration with the medium and incubated at 37° C. with 5% CO2 for 24 hours. Cells were fixed with 4% formaldehyde in PBS for 30 minutes at 25-35° C. and washed three times with PBS containing 0.1% Triton X-100. Endogenous peroxidase was quenched with 0.6% H2O2 in PBS-T for 30 minutes and washed three times in PBS-T. Then the cells were blocked with 10% FCS in PBS-T for 1 hour. The cells were incubated for 8-12 hours with various concentrations of primary antibody in PBS-T containing 5% BSA at 4° C. The cells were then washed three times with PBS-T for 5 minutes and incubated with secondary antibody (HRP conjugated 1:500 in PBS-T with 5% BSA for 1 hour at 25-35° C. The cells were washed three times with PBS-T for 5 minutes and twice with PBS. The cells were incubated with 100 μl TMB/H2O2 color developing solution for 15 minutes and the reaction was stopped with 50 μl of 1M H2SO4. Then the plate was read at 460 nm using ELISA plate reader.
(§4) (AMPK activation potential percentages are obtained by normalizing the values obtained at 10 μM concentration with that of metformin by considering the values obtained for metformin at 2 mM concentrations as 100%).

[2] = system: AMPK; test: AMPK activation potential, cell based ELISA with p-AMPK specific antibody, L6 muscle cells; conditions: 24 hours incubation, normalized to metformin at 2 mM as 100%
Experimental: as §1, §2, §3, §4

Compound	AMPK % activation (at 10 μM) HepG-2 muscle cells [1]	AMPK % activation (at 10 μM) L6 muscle cells [2]	melting point
CCOC(=O)Cc1csc(Nc2ccc(Cl)c(C(F)(F)F)c2)n1 [Example 1, [2-(4-Chloro-3-trifluoromethyl-phenylamino)-thiazol-4-yl]-acetic acid ethyl ester]	89%	88.2%	150 to 152 °C
CCOC(=O)Cc1csc(Nc2ccc(Br)c(C(F)(F)F)c2)n1 [Example 1-a, [2-(4-Bromo-3-trifluoromethyl-phenylamino)-thiazol-4-yl]-acetic acid ethyl ester]			161 to 164 °C
O=C(O)Cc1csc(Nc2ccc(Cl)c(C(F)(F)F)c2)n1 [Example 2, [2-(4-Chloro-3-trifluoromethyl-phenylamino)-thiazol-4-yl]-acetic acid]	102.69%	91.56%	
Cc1ccc(Nc2nc(CC(=O)O)cs2)cc1Cl [Example 2-b, [2-(3-Chloro-4-methyl-phenylamino)-thiazol-4-yl]-acetic acid]			142 to 144 °C
Cc1ccc(Nc2nc(CC(=O)O)cs2)cc1F [Example 2-e, [2-(3-Fluoro-4-methyl-phenylamino)-thiazol-4-yl]-acetic acid]			147 to 148 °C
O=C(O)Cc1csc(Nc2ccc(Br)c(F)c2)n1 [Example 2-g, [2-(4-Bromo-3-fluoro-phenylamino)-thiazol-4-yl]-acetic acid]			176 to 177 °C
O=C(O)Cc1csc(Nc2ccc(F)c(C(F)(F)F)c2)n1 [Example 2-h, [2-(4-Fluoro-3-trifluoromethyl-phenylamino)-thiazol-4-yl]-acetic acid]			167 to 169 °C
Cc1ccc(Nc2nc(CC(=O)O)cs2)cc1C(F)(F)F [Example 2-i, [2-(4-Methyl-3-trifluoromethyl-phenylamino)-thiazol-4-yl]-acetic acid]			154 to 155 °C
CC(C)(CC(=O)O)c1csc(Nc2ccc(Cl)c(C(F)(F)F)c2)n1 [Example 2-j, 3-[2-(4-Chloro-3-trifluoromethyl-phenylamino)-thiazol-4-yl]-3-methyl-butyricacid]			160 to 165 °C
O=C(O)Cc1csc(Nc2ccc(Br)c(C(F)(F)F)c2)n1 [Example 2a, [2-(4-Bromo-3-trifluoromethyl-phenylamino)-thiazol-4-yl]-acetic acid]	91.3%	83.4%	
CNC(=O)Cc1csc(Nc2ccc(Cl)c(C(F)(F)F)c2)n1 [Example 3, 2-[2-(4-Chloro-3-trifluoromethyl-phenylamino)-thiazol-4-yl]-N-methyl-acetamide]	102.14%	101.20%	148 to 150 °C
NNC(=O)Cc1csc(Nc2ccc(Cl)c(C(F)(F)F)c2)n1 [Example 3-b, [2-(4-Chloro-3-trifluoromethyl-phenylamino)-thiazol-4-yl]-acetic acid hydrazide]			115 to 118 °C
NC(=O)Cc1csc(Nc2ccc(Cl)c(C(F)(F)F)c2)n1 [Example 3c, 2-[2-(4-Chloro-3-trifluoromethyl-phenylamino)-thiazol-4-yl]-acetamide]	102.43%	88.1%	205 to 207 °C
O=C(Cc1csc(Nc2ccc(Cl)c(C(F)(F)F)c2)n1)Nc1ccc(Cl)c(C(F)(F)F)c1 [Example 4, N-(4-Chloro-3-trifluoromethyl-phenyl)-2-[2-(4-chloro-3-trifluoromethyl-phenylamino)-thiazol-4-yl]-acetamide]			108 to 112 °C
COc1ccc(NC(=O)Cc2csc(Nc3ccc(Cl)c(C(F)(F)F)c3)n2)cc1 [Example 4-a, 2-[2-(4-Chloro-3-trifluoromethyl-phenylamino)-thiazol-4-yl]-N-(4-methoxy-phenyl)-acetamide]			179 to 180 °C
CC(=O)c1ccc(NC(=O)Cc2csc(Nc3ccc(Cl)c(C(F)(F)F)c3)n2)cc1 [Example 4-b, N-(4-Acetyl-phenyl)-2-[2-(4-chloro-3-trifluoromethyl-phenylamino)-thiazol-4-yl]-acetamide]			194 to 195 °C
O=C(Cc1csc(Nc2ccc(Cl)c(C(F)(F)F)c2)n1)Nc1ccc(F)cc1 [Example 4-c, 2-[2-(4-Chloro-3-trifluoromethyl-phenylamino)-thiazol-4-yl]-N-(4-fluoro-phenyl)-acetamide]			146 to 148 °C
O=C(Cc1csc(Nc2ccc(Cl)c(C(F)(F)F)c2)n1)Nc1ccncc1 [Example 4-d, 2-[2-(4-Chloro-3-trifluoromethyl-phenylamino)-thiazol-4-yl]-N-pyridin-4-yl-acetamide]			178 to 180 °C
CSc1ccc(NC(=O)Cc2csc(Nc3ccc(Cl)c(C(F)(F)F)c3)n2)cc1 [Example 4-e, 2-[2-(4-Chloro-3-trifluoromethyl-phenylamino)-thiazol-4-yl]-N-(4-methylsulfanyl-phenyl)-acetamide]			151 to 152 °C
CC(=O)Nc1ccc(NC(=O)Cc2csc(Nc3ccc(Cl)c(C(F)(F)F)c3)n2)cc1 [Example 4-f, N-(4-Acetylamino-phenyl)-2-[2-(4-chloro-3-trifluoromethyl-phenylamino)-thiazol-4-yl]-acetamide]			262 to 263 °C
O=C(Cc1csc(Nc2ccc(Cl)c(C(F)(F)F)c2)n1)Nc1nccs1 [Example 4-g, 2-[2-(4-Chloro-3-trifluoromethyl-phenylamino)-thiazol-4-yl]-N-thiazol-2-yl-acetamide]			196 to 198 °C
O=C(Cc1csc(Nc2ccc(Cl)c(C(F)(F)F)c2)n1)Nc1cccnc1 [Example 4-h, 2-[2-(4-Chloro-3-trifluoromethyl-phenylamino)-thiazol-4-yl]-N-pyridin-3-yl-acetamide]			191 to 192 °C
O=C(Cc1csc(Nc2ccc(Cl)c(C(F)(F)F)c2)n1)N1CCOCC1 [Example 4-i, 2-[2-(4-Chloro-3-trifluoromethyl-phenylamino)-thiazol-4-yl]-1-morpholin-4-yl-ethanone]			210 to 211 °C
O=C(Cc1csc(Nc2ccc(Cl)c(C(F)(F)F)c2)n1)N1CCSCC1 [Example 4-j, 2-[2-(4-Chloro-3-trifluoromethyl-phenylamino)-thiazol-4-yl]-1-thiomorpholin-4-yl-ethanone]			185 to 187 °C
COc1ccc(CNC(=O)Cc2csc(Nc3ccc(Cl)c(C(F)(F)F)c3)n2)cc1 [Example 4-k, 2-[2-(4-Chloro-3-trifluoromethyl-phenylamino)-thiazol-4-yl]-N-(4-methoxy-benzyl)-acetamide]			65 to 70 °C
O=C(O)c1csc(Nc2ccc(Cl)c(C(F)(F)F)c2)n1 [Example 5, 2-(4-Chloro-3-trifluoromethyl-phenylamino)-thiazole-4-carboxylic acid]			254 to 256 °C
